Results: the supplement of paper PMC7224384

Tests used:
[1] = system: MDA-MB-453; experiment: drug sensitivity score (DSS), in combination with BLU9931 (DSS (weighted AUC score)); higher = more sensitive (stronger viability decrease); extreme values may be limits of the assay; details: BLU9931 100 nM; 72 h
Procedure, shortened: (§1)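 Cells of the MDA-MB-453 line (2000 per well) were added in medium, with or without 100 nM final FGFR4 inhibitor, to 384-well plates predispensed with FIMM Oncology set compounds at five 10-fold dilutions covering a 10,000-fold range. After 72 h at 37 °C, 5% CO2, CellTiterGlo 2.0 read cellular ATP. Percent viability came from per-plate normalisation to control wells, and the drug sensitivity score was defined as a weighted area under a four-parameter logistic fit.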

[2] = system: MDA-MB-453; experiment: drug sensitivity score (DSS), single agent (DSS (weighted AUC score)); higher = more sensitive (stronger viability decrease); extreme values may be limits of the assay; details: BLU9931 0 nM; 72 h
Procedure, shortened: as §1

SMILES | drug sensitivity score [1] | drug sensitivity score [2]
C[C@@H]1CN(Cc2ccc(F)cc2)[C@@H](C)CN1C(=O)c1cc2c(C(=O)C(=O)N(C)C)cn(C)c2cc1Cl [Talmapimod] | 0 | 0
CCCCCCCCc1ccc(CCC(N)(CO)CO)cc1 [Fingolimod] | 7.7 | 8.7
C1=N/C2=N/c3ccc(OCCN4CCCC4)c(c3)COC/C=C/COCc3cccc(c3)C(=C1)N2 [Pacritinib] | 10 | 8.3
COc1cc(OC2CCN(C)CC2)ccc1Nc1ncc2c(n1)n(C1CCCC1)c(=O)n2C [AZ 3146] | 1 | 2.6
CN(C)CC#Cc1ccc(OCCCc2sc(N3CCc4cccc(C(=O)Nc5nc6ccccc6s5)c4C3)nc2C(=O)O)c(F)c1 | 12 | 6.6
CN(c1ncccc1CNc1nc(Nc2ccc3c(c2)CC(=O)N3)ncc1C(F)(F)F)S(C)(=O)=O | 3.9 | 3.9
CNS(=O)(=O)Nc1nccc(Cc2c(C)c3ccc(Oc4ncccn4)cc3oc2=O)c1F | 0.2 | 0.5
Cc1cnc(-c2ccccc2C(C)C)nc1NCc1ccc(-n2ccnn2)cc1 [ML323] | 0 | 0.4
CC1(C)CNc2cc(NC(=O)c3cccnc3NCc3ccncc3)ccc21 [Motesanib] | 0.3 | 1
CNc1nc(-c2ccc3c(N)n[nH]c3c2)cc(N2C[C@@H](C(=O)NC3CCCCC3)CC[C@H]2C)n1 | 3.9 | 4.8
CC[C@H](C)C(=O)O[C@H]1C[C@@H](C)C=C2C=C[C@H](C)[C@H](CC[C@@H]3C[C@@H](O)CC(=O)O3)[C@H]21 [Lovastatin] | 0 | 0
NC(=O)/C(=C/n1cnc(-c2cc(C(F)(F)F)cc(C(F)(F)F)c2)n1)c1cncnc1 [Eltanexor] | 14.2 | 13.8
Cc1nc(NC(=O)N2CCC[C@H]2C(N)=O)sc1-c1ccnc(C(C)(C)C(F)(F)F)c1 [Alpelisib] | 8 | 7.2
C=CCn1c(=O)c2cnc(Nc3ccc(N4CCN(C)CC4)cc3)nc2n1-c1cccc(C(C)(C)O)n1 [AZD1775] | 12.4 | 13.7
COc1cc(N2CCN(C)CC2)ccc1Nc1nccc(-c2cn(C)c3cnccc23)n1 [AZ191] | 1.2 | 1.3
O=c1[nH]c(C2CCCN2)nc2c1oc1ccc(Cl)cc12 (configuration not stated) | 0.5 | 0
Cc1nc2cccc(N)c2c(=O)n1C1CCC(=O)NC1=O (configuration not stated) [CC122] | 0 | 0
CC1(C)NC(=O)N(c2ccc([N+](=O)[O-])c(C(F)(F)F)c2)C1=O [Nilutamide] | 0 | 0
COc1cc(CCc2cc(NC(=O)c3ccc(N4CC(C)NC(C)C4)cc3)n[nH]2)cc(OC)c1 (configuration not stated) [AZD4547] | 0 | 0.3

SMILES | drug sensitivity score [1] | drug sensitivity score [2]
CCN(CC)CCCC(C)Nc1c2ccc(Cl)cc2nc2ccc(OC)cc12 (configuration not stated) [Mepacrine] | 14.7 | 16.2
Cc1cc2c(C(=O)NC[C@H](C)c3ccccc3)c(O)c(O)cc2c(O)c1-c1c(C)cc2c(C(=O)NC[C@H](C)c3ccccc3)c(O)c(O)cc2c1O [Sabutoclax] | 12.4 | 12.6
COc1cc2c(cc1OC(C)C)[C@H](c1ccc(Cl)cc1)N(c1ccc(N(C)C[C@H]3CC[C@H](N4CCN(C)C(=O)C4)CC3)cc1)C(=O)C2 [NVP-CGM097] | 8.5 | 7.9
CNC(=O)c1ccccc1Sc1ccc2c(/C=C/c3ccccn3)n[nH]c2c1 [Axitinib] | 0.3 | 2.2
Cc1cc(C(C)Nc2ccccc2)c2nc(N3CCOCC3)cc(=O)n2c1 (configuration not stated) [TGX-221] | 3.2 | 2.6
Cc1cccc(-c2[nH]c(CNc3ccccc3F)nc2-c2ccc3ncnn3c2)n1 [TEW-7197] | 1.8 | 5.2
Cc1ccc(-c2cc(C(F)(F)F)nn2-c2ccc(S(N)(=O)=O)cc2)cc1 [Celecoxib] | 0 | 0.4
CCS(=O)(=O)N1CCN(c2ccc(Nc3ncc(C(N)=O)c(NC4CC4)n3)cc2)CC1 [Cerdulatinib] | 0.3 | 4.4
CNC(=O)c1ccc(N2C(=S)N(c3ccc(C#N)c(C(F)(F)F)c3)C(=O)C2(C)C)cc1F [Enzalutamide] | 0 | 1.3
Nc1ncnc2c1nc(N)n2[C@@H]1O[C@H](CO)[C@@H](O)[C@H]1O [8-amino-adenosine] | 25 | 22.4
CN1CCN(c2cc(C(=O)Nc3ccc4c(c3)-c3c(c(C(N)=O)nn3-c3ccc(F)cc3)CC4)c(Cl)cn2)CC1 [PHA 408] | 3.4 | 4.9
Cn1cc(C2=Nc3cc(NC(=O)C(N)C4CCCCC4)cc4c3C2=CNNC4=O)cn1 (configuration not stated) | 9.9 | 14.4
Nc1nc(N)c2nc(-c3cccc(O)c3)c(-c3cccc(O)c3)nc2n1 [TG100-115] | 5.9 | 5.1
COc1cc2c(cc1OCCCN1CCCC1)N=C(N)C21CCC1 [A-366] | 0 | 0
C[C@@H]1C[C@H]2[C@@H]3CCC4=CC(=O)C=C[C@]4(C)[C@@]3(F)[C@@H](O)C[C@]2(C)[C@@]1(O)C(=O)CO [Dexamethasone] | 0 | 4
O=C(Nc1cnn2ccc(N3CCC[C@@H]3c3cc(F)ccc3F)nc12)N1CC[C@H](O)C1 [Larotrectinib] | 0 | 0.4
Cc1sc2c(c1C)C(c1ccc(Cl)cc1)=N[C@@H](CC(=O)Nc1ccc(O)cc1)c1nnc(C)n1-2 [Birabresib] | 15.2 | 15.2
CO[C@H]1C[C@@H]2CC[C@@H](C)[C@@](O)(O2)C(=O)C(=O)N2CCCC[C@H]2C(=O)O[C@H]([C@H](C)C[C@@H]2CC[C@@H](O)[C@H](OC)C2)CC(=O)[C@H](C)/C=C(\C)[C@@H](O)[C@@H](OC)C(=O)[C@H](C)C[C@H](C)/C=C/C=C/C=C/1C [Sirolimus] | 10.5 | 5.1
CN[C@@H]1C[C@H]2O[C@@](C)([C@@H]1OC)n1c3ccccc3c3c4c(c5c6ccccc6n2c5c31)C(=O)N[C@H]4O [UCN-01] | 16 | 18.2

SMILES | drug sensitivity score [1] | drug sensitivity score [2]
COc1cc(Br)c(Nc2nc(-c3c(C)nc4ncccn34)cs2)c(Br)c1 [PTC-209] | 2 | 3.2
CCCCC(=O)OCC(=O)[C@]1(O)Cc2c(O)c3c(c(O)c2[C@@H](O[C@H]2C[C@H](NC(=O)C(F)(F)F)[C@H](O)[C@H](C)O2)C1)C(=O)c1c(OC)cccc1C3=O [Valrubicin] | 8 | 8.6
CCOc1cc2ncc(C#N)c(Nc3ccc(OCc4ccccn4)c(Cl)c3)c2cc1NC(=O)/C=C/CN(C)C [Neratinib] | 17.9 | 15.4
C[C@H](Nc1ncnc2[nH]cnc12)c1cc2ccc(F)cc2nc1-c1ccccn1 [AMG319] | 0.3 | 1.1
C=CC(=O)Nc1cc(Nc2nccc(-c3cn(C)c4ccccc34)n2)c(OC)cc1N(C)CCN(C)C [Osimertinib] | 10.4 | 8
C[C@H]1CNCCCN1S(=O)(=O)c1cccc2cncc(F)c12 [Ripasudil] | 0.1 | 0
C=C1C[C@@H]2[C@H](CC[C@]3(C)C(=O)CC[C@@H]23)[C@@]2(C)C=CC(=O)C=C12 [Exemestane] | 0 | 4.8
COc1cccc2c1C(=O)c1c(O)c3c(c(O)c1C2=O)C[C@@](O)(C(C)=O)C[C@@H]3O[C@H]1C[C@H](N)[C@H](O)[C@H](C)O1 [Daunorubicin] | 5.4 | 7.4
CCOC(=O)CCNc1cc(N2CCc3ccccc3CC2)nc(-c2ccccn2)n1 [GSK-J4] | 14 | 13.2
COc1cc2c(cc1-c1c(C)noc1C)ncc1[nH]c(=O)n([C@H](C)c3ccccn3)c12 [I-BET151] | 11.4 | 11.5
Cc1ccc(C(=O)Nc2ccc(CN3CCN(C)CC3)c(C(F)(F)F)c2)cc1C#Cc1cnc2cccnn12 [Ponatinib] | 1.7 | 5.9
CCCN(CCC)C(=O)C1=Cc2ccc(-c3ccc(C(=O)N4CCCC4)cc3)cc2N=C(N)C1 [Motolimod] | 0 | 0.1
CC(C)(C)c1nc(-c2cccc(NS(=O)(=O)c3c(F)cccc3F)c2F)c(-c2ccnc(N)n2)s1 [Dabrafenib] | 0.4 | 1.5
O=C(O)c1ccc(O)c2ncccc12 [IOX-1] | 3.6 | 1.6
N[C@@H]1CCCN(c2c(/C=C3\SC(=O)NC3=O)cccc2-c2ccccc2)C1 [AZD1208] | 0.1 | 0.3
N#Cc1ccc(COC[C@H]2O[C@@H](n3c(NCc4ccc(Cl)c(Cl)c4)nc4c(N)ncnc43)[C@H](O)[C@@H]2O)cc1 | 4.2 | 4.9
CCc1c2c(nc3ccc(O)cc13)-c1cc3c(c(=O)n1C2)COC(=O)[C@]3(O)CC [SN-38] | 26.2 | 28.8
Nc1nc(Nc2ccc3c(c2)CC[C@@H](N2CCCC2)CC3)nn1-c1cc2c(nn1)-c1ccccc1CCC2 [BGB324] | 0.2 | 3.2
